Data on one compound can be found in patent US20210378193A1, “HAPLOID EMBRYOGENESIS” (STICHTING WAGENINGEN RESEARCH, priority 2013, published 2021).

This assay has as its system B. napus DH 12075 microspore-derived embryos. As to the kind of experiment: conversion of microspore-derived embryos to seedlings (roots, shoots). Type of assay: cell-based, Brassica napus. As to conditions: embryos transferred to regeneration medium. An excerpt:
All of the embryos that produced roots, except for the short embryo type, initiated root development from the root meristem, as evidenced by the development of roots within a few days of growth on germination medium.
In FIG. 12B, different types of embryos derived from different populations of microspores/pollen treated with DMSO (control) or different concentrations of HDACi were transferred to a regeneration medium and evaluated for their ability to produce shoots (a measure of conversion).

On to `O=C(CCCCCCC(=O)Nc1ccccc1)NO` [SAHA, suberoylanilide hydroxamic acid], for which the “germination (ability to produce shoots, a measure of conversion) compared to the control” value was “improved”.
